The test system of one data set is HIV (HTLV-IIIB strain). The experiment in a line: microbe, parasite or virus in culture. The following applies: Human immunodeficiency virus 1, IIIB, MT4, 120 h. Format: cell-based. In short, it runs like this: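 Protection from virus was read as viable-cell MTT conversion to formazan after 5 days at 37° C. The cultures contained MT-4 cells (3.5×10^4/well), compound dilutions and 60 pfu HIV per well.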

The nature of data set [1]: cytotoxicity in MT-4 cells (MTT, culture medium in place of HIV). The note with it: human. Format: cell-based. In short, it runs like this: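 Uninfected readout: compound-treated MT-4 cultures, 3.5×10^4 cells/well, received medium in place of virus and were kept 5 days at 37° C. Viability measured by 1 h MTT reduction, solubilized formazan read at 560/690 nm relative to control wells.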

In data set [2] the target is T1, purified recombinant HIV-1 reverse transcriptase (Human immunodeficiency virus type 1 group M subtype B, UniProt P04585).
T1 construct: purified recombinant HIV-1 reverse transcriptase; made in house; host or cells: Escherichia coli
The experiment in a line: reverse transcriptase inhibition, poly(rA)/(dT) template primer, [3H]dTTP uptake. Format: biochemical. In short, it runs like this:
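Inhibition reported as percent reduction of [3H]dTTP incorporation relative to solvent control, after 1 h at 37 °C at pH 8.3. Recombinant RT from E. coli, poly(rA) template with oligo(dT) primer, 4 μM unlabeled dTTP as substrate; product collected on DEAE filter mats.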

[3] abbreviates: MT-4 cells, no virus, 37° C., 5 days, MTT, Table 3, read-out: CC50.
[4] abbreviates: MT-4 cells, 60 pfu HIV per well, 37° C., 5 days, MTT, Tables 1 and 2, read-out: EC50.

≈ marks a conversion by molar mass, not a printed value. Structures can show the parent of a compound that is named as a salt. Where two headings read alike, the source gives them in different places.

In the data set on HIV (HTLV-IIIB strain), `CCn1c(COC(N)=O)nc(C(C)C)c1Sc1cc(F)cc(F)c1` [Compound I-58, 2-carbamoyloxymethyl-5-(3,5-difluorophenylthio)-1-ethyl-4-isopropyl-1H-imidazole] yielded an EC50 of 0.002 µg/mL (≈ 0.00563 µM). The CC50 at 120 h in data set [1] (setting [3]) was in the range of 10 to 100 µg/mL (≈ 28.1 to 281 µM). The concentration for half-maximal inhibition (IC50) in data set [2] was 0.422 µM.

`CNC(=S)OCc1nc(C(C)C)c(Sc2cc(Cl)cc(Cl)c2)n1C` [Compound I-44, 5-(3,5-dichlorophenylthio)-4-isopropyl-1-methyl-2-(N-methylthiocarbamoyl)oxymethyl-1H-imidazole]: the EC50 in the data set on HIV (HTLV-IIIB strain) (setting [4]) came to 1 µg/mL (≈ 2.47 µM). Besides, in data set [1] (setting [3]), the CC50 at 120 h was 1 to 10 µg/mL (≈ 2.47 to 24.7 µM). Besides, in data set [2], the IC50 is 107 µM.

`CC(C)c1nc(CO)n(Cc2ccc([N+](=O)[O-])cc2)c1Sc1cc(Cl)cc(Cl)c1` [Compound 103a, 5-(3,5-dichlorophenylthio)-2-hydroxymethyl-4-isopropyl-1-(p-nitrobenzyl)-1H-imidazole]: in the data set on HIV (HTLV-IIIB strain) (setting [4]), the EC50 was < 0.008 µg/mL. Also, the CC50 at 120 h in data set [1] (mt-4 cells) was in the range of 6.3 to 12.5 µg/mL (≈ 13.9 to 27.6 µM). Also, the IC50 in data set [2] is 28.7 µM.

For `CC(C)c1nc(CO)n(CCCCCc2ccccc2)c1Sc1cc(Cl)cc(Cl)c1` [Compound I-124, 5-(3,5-dichlorophenylthio)-2-hydroxymethyl-4-isopropyl-1-(5-phenylpentyl)-1H-imidazole], the half-maximal effective concentration (EC50) with HIV (HTLV-IIIB strain) (setting [4]) turned out to be 0.25 µg/mL (≈ 0.539 µM). The same molecule had a CC50 at 120 h in data set [1] (mt-4 cells) of 12.5 µg/mL (≈ 27 µM). For the same molecule, the IC50 in data set [2] is > 216 µM.

`CC(C)c1nc(CCO)n(Cc2ccccc2N)c1Sc1cc(Cl)cc(Cl)c1` [Compound I-143]: the EC50 in the data set with HIV (HTLV-IIIB strain) (setting [4]) turned out to be 0.008 µg/mL (≈ 0.0183 µM). For the same molecule, the cytotoxic concentration (CC50) at 120 h in data set [1] (mt-4 cells) turned out to be 12.5 µg/mL (≈ 28.6 µM). Besides, in data set [2], the IC50 was 77 µM.

For `CC(C)c1nc(CO)n(C)c1Sc1cccc(Cl)c1` [Compound I-13, [5-(3-chlorophenylthio)-4-isopropyl-1-methyl-1H-imidazol-2-yl]methanol], the EC50 in the data set with HIV (HTLV-IIIB strain) (setting [4]) turned out to be 0.06 µg/mL (≈ 0.202 µM). Also, the CC50 at 120 h in data set [1] (setting [3]) amounted to 25 µg/mL (≈ 84.2 µM). Also, the IC50 in data set [2] was 2.7 µM.

On to `CC(C)c1nc(CCO)n(Cc2cccc(N)c2)c1Sc1cc(Cl)cc(Cl)c1` [Compound I-141, I-(m-aminobenzyl)-5-(3,5-dichlorophenylthio)-2-hydroxyethyl-4-isopropyl-1H-imidazole], for which the EC50 in the data set with HIV (HTLV-IIIB strain) (setting [4]) was < 0.008 µg/mL. The CC50 at 120 h in data set [1] (mt-4 cells) lay in the range of 25 to 50 µg/mL (≈ 57.3 to 115 µM). For the same molecule, the IC50 in data set [2] is 4.12 µM.

On to `CC(C)c1nc(COC(N)=O)n(CCc2ccccn2)c1Sc1cc(Cl)cc(Cl)c1` [Compound I-129, 2-carbamoyloxymethyl-5-(3,5-dichlorophenylthio)-4-isopropyl-1-(2-(2-pyridyl)ethyl)-1H-imidazole], for which the EC50 in the data set with HIV (HTLV-IIIB strain) (setting [4]) stood at 0.06 µg/mL (≈ 0.129 µM). This molecule came in with a CC50 at 120 h in data set [1] (mt-4 cells) of 12.5 to 25 µg/mL (≈ 26.9 to 53.7 µM). Besides, the IC50 in data set [2] was 76.9 µM.

With `CC(C)c1nc(CO)n(CCO)c1Sc1cc(Cl)cc(Cl)c1` [Compound 119b, 2-(5-(3,5-dichlorophenyl-thio)-2-hydroxymethyl-4-isopropyl-1H-imidazol-1-yl)ethanol], in the data set on HIV (HTLV-IIIB strain) (setting [4]), the EC50 is < 0.008 µg/mL. Further, in data set [1] (mt-4 cells), the 50% cytotoxic concentration (CC50) at 120 h was 12.5 to 25 µg/mL (≈ 34.6 to 69.2 µM). Besides, the IC50 in data set [2] was 1.72 µM.

`CC(C)c1nc(COC(N)=O)n(CF)c1Sc1cc(Cl)cc(Cl)c1` [Compound I-56, 2-carbamoyloxymethyl-5-(3,5-dichlorophenylthio)-1-fluoromethyl-4-isopropyl-1H-imidazole] yielded an EC50 in the data set with HIV (HTLV-IIIB strain) of 0.008 µg/mL (≈ 0.0204 µM). The CC50 at 120 h in data set [1] (setting [3]) is 10 to 100 µg/mL (≈ 25.5 to 255 µM). For the same molecule, the IC50 in data set [2] is 2.37 µM.

Take `CCCn1c(COC(N)=O)nc(C(C)C)c1Sc1cc(Cl)cc(Cl)c1` [Compound I-51, 2-carbamoyloxymethyl-5-(3,5-dichlorophenylthio)-4-isopropyl-1-n-propyl-1H-imidazole]: in the data set on HIV (HTLV-IIIB strain) (setting [4]), the EC50 was 0.003 to 0.005 µg/mL (≈ 0.00746 to 0.0124 µM). In data set [1] (setting [3]), the cytotoxic concentration (CC50) at 120 h was in the range of 6.3 to 12.5 µg/mL (≈ 15.7 to 31.1 µM). Further, the IC50 in data set [2] is 0.944 µM.

On to `CCc1nc(C)n(C)c1Sc1cc(C)cc(C)c1` [Compound I-5, 1,2-dimethyl-5-(3,5-dimethylphenylthio)-4-ethylimidazole], for which, in the data set with HIV (HTLV-IIIB strain) (setting [4]), the EC50 was found to be 0.06 µg/mL (≈ 0.23 µM). Moreover, the CC50 at 120 h in data set [1] (setting [3]) lay in the range of 1 to 10 µg/mL (≈ 3.84 to 38.4 µM). Moreover, the IC50 in data set [2] is 8.83 µM.

Consider `CCCn1c(CO)nc(C(C)C)c1Sc1cccc([N+](=O)[O-])c1` [Compound I-24, [4-isopropyl-5-(3-nitrophenylthio)-1-n-propyl-1H-imidazol-2-yl]methanol], for which the EC50 with HIV (HTLV-IIIB strain) (setting [4]) was 0.008 µg/mL (≈ 0.0239 µM). In addition, the CC50 at 120 h in data set [1] (setting [3]) came to 25 µg/mL (≈ 74.5 µM). In addition, the IC50 in data set [2] is 2.98 µM.

Molecule `C=CCn1c(CO)nc(C(C)C)c1Sc1cc(Cl)cc(Cl)c1` [Compound I-19, [1-allyl-5-(3,5-dichlorophenylthio)-4-isopropyl-1H-imidazol-2-yl]methanol] displayed an EC50 in the data set on HIV (HTLV-IIIB strain) of 0.004 to 0.008 µg/mL (≈ 0.0112 to 0.0224 µM). The CC50 at 120 h in data set [1] (setting [3]) lay within 10 to 100 µg/mL (≈ 28 to 280 µM). Moreover, in data set [2], the IC50 was 2.02 µM.

Regarding `CC(C)c1nc(COC(N)=O)n(Cc2ccc(=O)[nH]c2)c1Sc1cc(Cl)cc(Cl)c1` [Compound I-131, 2-carbamoyloxymethyl-5-(3,5-dichlorophenylthio)-1-(6-oxo-1,6-dihydro-pyridin-3-yl)methyl-4-isopropyl-1H-imidazoles], the EC50 with HIV (HTLV-IIIB strain) (setting [4]) was found to be 0.003 µg/mL (≈ 0.00642 µM). For the same molecule, in data set [1] (mt-4 cells), the CC50 at 120 h was determined as 38.8 µg/mL (≈ 83 µM). Moreover, the IC50 in data set [2] was 2.78 µM.

With `CC(C)c1nc(CCCO)n(C)c1Sc1cc(Cl)cc(Cl)c1` [Compound 137a, 3-(5-(3,5-dichlorophenylthio)-4-isopropyl-1-methyl-1H-imidazol-2-yl)-propan-1-ol], in the data set with HIV (HTLV-IIIB strain) (setting [4]), the EC50 turned out to be 0.008 µg/mL (≈ 0.0223 µM). Also, the CC50 at 120 h in data set [1] (mt-4 cells) was in the range of 6.3 to 12.5 µg/mL (≈ 17.5 to 34.8 µM). Also, the IC50 in data set [2] is 5.57 µM.

Consider `CC(C)c1nc(CCO)n(Cc2ccc(N)cc2)c1Sc1cc(Cl)cc(Cl)c1` [Compound I-139, 1-(p-aminobenzyl)-5-(3,5-dichlorophenylthio)-2-hydroxyethyl-4-isopropyl-1H-imidazole], for which the EC50 in the data set on HIV (HTLV-IIIB strain) (setting [4]) was < 0.008 µg/mL. The same molecule displayed a CC50 at 120 h in data set [1] (mt-4 cells) of 6.3 µg/mL (≈ 14.4 µM). Also, the half-maximal inhibitory concentration (IC50) in data set [2] is 3.67 µM.

`CC(C)c1nc(COCc2ccccc2)n(CCO)c1Sc1cc(Cl)cc(Cl)c1` [Compound 118c, 2-[2-benzyloxymethyl-5-(3,5-dichlorophenylthio)-4-i-sopropyl-1H-imidazol-1-yl]ethanol]: in the data set on HIV (HTLV-IIIB strain) (setting [4]), the EC50 worked out at 1 µg/mL (≈ 2.22 µM). In addition, the CC50 at 120 h in data set [1] (mt-4 cells) lay within 6.3 to 12.5 µg/mL (≈ 14 to 27.7 µM). For the same molecule, the IC50 in data set [2] is > 222 µM.

Consider `CC(C)c1nc(CN)n(C)c1Sc1cccc([N+](=O)[O-])c1` [Compound I-67, 2-aminomethyl-4-isopropyl-1-methyl-5-(3-nitrophenylthio)-1H-imidazole], for which the EC50 in the data set with HIV (HTLV-IIIB strain) (setting [4]) is 0.13 to 0.25 µg/mL (≈ 0.424 to 0.816 µM). Moreover, the CC50 at 120 h in data set [1] (setting [3]) fell in the range of 12.5 to 25 µg/mL (≈ 40.8 to 81.6 µM). The concentration for half-maximal inhibition (IC50) in data set [2] is 17.6 µM.

`CCCCn1c(CO)nc(C(C)C)c1Sc1cc(Cl)cc(Cl)c1` [Compound I-15, [1-n-butyl-5-(3,5-dichlorophenylthio)-4-isopropyl-1H-imidazol-2-yl]methanol]: the EC50 with HIV (HTLV-IIIB strain) (setting [4]) was 0.005 to 0.01 µg/mL (≈ 0.0134 to 0.0268 µM). Further, the CC50 at 120 h in data set [1] (setting [3]) was in the range of 6.3 to 12.5 µg/mL (≈ 16.9 to 33.5 µM). In data set [2], the IC50 is 2.01 µM.

With `CCn1c(CN)nc(C(C)C)c1Sc1cc(Cl)cc(Cl)c1` [Compound I-71, 2-aminomethyl-5-(3,5-dichlorophenylthio)-1-ethyl-4-isopropyl-1H-imidazole], in the data set with HIV (HTLV-IIIB strain) (setting [4]), the EC50 was 0.008 µg/mL (≈ 0.0232 µM). In data set [1] (setting [3]), the CC50 at 120 h fell in the range of 1 to 10 µg/mL (≈ 2.9 to 29 µM). For the same molecule, the IC50 in data set [2] was 0.987 µM.

`CC(C)c1nc(CO)n(Cc2ccsc2)c1Sc1cc(Cl)cc(Cl)c1` [Compound I-127, 5-(3,5-dichlorophenylthio)-2-hydroxymethyl-4-isopropyl-1-(13-thienylmethyl)-1H-imidazole hydrochloride]: in the data set with HIV (HTLV-IIIB strain) (setting [4]), the EC50 stood at 0.016 µg/mL. Moreover, the CC50 at 120 h in data set [1] (mt-4 cells) fell in the range of 12.5 to 25 µg/mL. Also, in data set [2], the IC50 is 14.8 µM.

Regarding `CC(=O)Cn1c(CO)nc(C(C)C)c1Sc1cc(Cl)cc(Cl)c1` [Compound I-32], in the data set with HIV (HTLV-IIIB strain) (setting [4]), the EC50 is 0.06 µg/mL (≈ 0.161 µM). Besides, in data set [1] (setting [3]), the CC50 at 120 h is 10 to 100 µg/mL (≈ 26.8 to 268 µM). Also, the IC50 in data set [2] is 7.23 µM.

The record behind these values is patent US6147097A, “Imidazole derivatives as anti-HIV agents” (Shionogi & Co., Ltd., priority 1994, dated 2000).
